Our source for the EC50 values is patent US20180214428A1, “3-(1H-INDOL-2-YL)-1H-PYRAZOLO[3,4-B]PYRIDINES AND THERAPEUTIC USES THEREOF” (Samumed, LLC, priority 2015, published 2018).

Assay [1] has as its system Wnt activity (Sp5-Luc reporter gene, SW480 colon carcinoma cells). The assay is described as follows: Screening assay for Wnt activity: Sp5-Luc reporter gene assay in SW480 cells. Format: cell-based, human. The conditions noted are these: Homo sapiens, overnight incubation. The text has this:
The screening assay for Wnt activity is described as follows. Reporter cell lines can be generated by stably transducing cancer cell lines (e.g., colon cancer) or primary cells (e.g., IEC-6 intestinal cells) with a lentiviral construct that includes a Wnt-responsive promoter driving expression of the firefly luciferase gene.
SW480 colon carcinoma cells were transduced with a lentiviral vector expressing luciferase with a human Sp5 promoter consisting of a sequence of eight TCF/LEF binding sites. SW480 cells stably expressing the Sp5-Luc reporter gene and a hygromycin resistance gene were selected by treatment with 150 μg/mL of hygromycin for 7 days. These stably transduced SW480 cells were expanded in cell culture and used for all further screening activities. Each compound was dissolved in DMSO as a 10 mM stock and used to prepare compound source plates. Serial dilution (1:3, 10-point dose-response curves starting from 10 μM) and compound transfer was performed using the ECHO 550 (Labcyte, Sunnyvale, Calif.) into 384-well white solid bottom assay plates (Greiner Bio-One) with appropriate DMSO backfill for a final DMSO concentration of 0.1%. For Sp5-Luc reporter gene assays, the cells were plated at 4,000 cells/well in 384-well plates with medium containing 1% fetal bovine serum and incubated overnight at 37° C. and 5% CO2. Following incubation, 20 μl of BrightGlo luminescence reagent (Promega) was added to each well of the 384-well assay plates. The plates were placed on an orbital shaker for 2 min and then luminescence was quantified using the Envision (Perkin Elmer) plate reader. Readings were normalized to DMSO only treated cells, and normalized activities were utilized for EC50 calculations using the dose-response log (inhibitor) vs. response variable slope (four parameters) nonlinear regression feature available in GraphPad Prism 5.0 (or Dotmatics). For EC50 of >10 μM, the percent inhibition at 10 μM is provided.

The subject of assay [2] is SW480 colon cancer cells. The assay is described as follows: Cell viability assay (CellTiter-Blue) in SW480 colon cancer cells. Format: cell-based, human. Particulars: Homo sapiens, 96 h, four days, CellTiter-Blue. The procedure:
Representative compounds were screened using the following assay procedure to assess the effect on cell viability as described below.
Each compound was dissolved in DMSO as a 10 mM stock and used to prepare compound source plates. Serial dilution (1:3, 8-point dose-response curves from 10 μM to 0.0045 μM) and compound transfer was performed using the ECHO 550 (Labcyte, Sunnyvale, Calif.) into 96-well clear bottom, black-walled plates (Corning-Costar).
Approximately 2×10^3 SW480 colon cancer cells were seeded into each well and allowed to incubate in the presence or absence of compound for four days at 37° C./5% CO2. Eight replicates of DMSO-treated cells served as controls and cells treated with compound were performed in duplicate.
After incubation, 20 μL of CellTiter-Blue (Promega) was added to each well allowed to incubate for approximately 3 hours. This reagent was a buffered solution which contains resazurin, metabolically active cells were able to reduce rezarurin (blue) into resorufin (pink) which was highly fluorescent. This measured fluorescence was used as a readout for cell viability.
After incubation, the plates were read at Ex 560 nm Em 590 nm (Cytation 3, BioTek). Dose-response curves were generated and EC50 concentration values were calculated using non-linear regression curve fit in the GraphPad Prism (San Diego, Calif.) or Dotmatics' Studies Software (Bishops Stortford, UK). For EC50 of >10 μM, the percent inhibition at 10 μM is provided.

Assay [3] concerns primary human fibroblasts derived from IPF patients (LL29 cells). The assay is described as follows: Inhibition of the fibrotic process: αSMA staining in TGF-β1 treated LL29 fibroblasts. Format: cell-based. The conditions noted are these: Homo sapiens, Fibroblast, 96 h, TGF-β1 20 ng/mL, 4 days, % αSMA positive cells. From the text:
Representative compounds were screened using primary human fibroblasts (derived from IPF patients) treated with TGF-β1 to determine their ability to inhibit the fibrotic process.
Primary human fibroblasts derived from IPF patients (LL29 cells) [^1Xiaoqiu Liu, et. al., “Fibrotic Lung Fibroblasts Show Blunted Inhibition by cAMP Due to Deficient cAMP Response Element-Binding Protein Phosphorylation”, Journal of Pharmacology and Experimental Therapeutics (2005), 315(2), 678-687; ^2Watts, K. L., et. al., “RhoA signaling modulates cyclin D1 expression in human lung fibroblasts; implications for idiopathic pulmonary fibrosis”, Respiratory Research (2006), 7(1), 88] were obtained from American Type Culture Collection (ATCC) and expanded in F12 medium supplemented with 15% Fetal Bovine Serum and Penicillin/Streptomycin.
Each compound was dissolved in DMSO as a 10 mM stock and used to prepare compound source plates. Serial dilution (1:2, 11-point dose-response curves from 10 μM to […]) and compound transfer was performed using the ECHO 550 (Labcyte, Sunnyvale, Calif.) into 384-well clear bottom assay plates (Greiner Bio-One) with appropriate DMSO backfill for a final DMSO concentration of 0.1%. LL29 cells are plated at 1,500 cells/well in 80 μL/well F12 medium supplemented with 1% Fetal Bovine Serum. One hour after addition of the cells, TGF-01 (Peprotech; 20 ng/mL) was added to the plates to induce fibrosis (ref. 1 and 2 above). Wells treated with TGF-β1 and containing DMSO were used as controls. Cells were incubated at 37° C. and 5% CO2 for 4 days. Following incubation for 4 days, SYTOX green nucleic acid stain (Life Technologies [Thermo Fisher Scientific]) was added to the wells at a final concentration of 1 μM and incubated at room temperature for 30 min. Cells were then fixed using 4% formaldehyde (Electron Microscopy Sciences), washed 3 times with PBS followed by blocking and permeabilization using 3% Bovine Serum Albumin (BSA; Sigma) and 0.3% Triton X-100 (Sigma) in PBS. Cells were then stained with antibody specific to α-smooth muscle actin (aSMA; Abcam) (ref. 1 and 2 above) in 3% Bovine Serum Albumin (BSA; Sigma) and 0.3% Triton X-100 (Sigma) in PBS, and incubated overnight at 4° C. Cells were then washed 3 times with PBS, followed by incubation with Alexa Flor-647 conjugated secondary antibody (Life Technologies [Thermo Fisher Scientific]) and DAPI at room temperature for 1 hour. Cells were then washed 3 times with PBS and plates were sealed for imaging. αSMA staining was imaged by excitation at 630 nm and emission at 665 nm and quantified using the Compartmental Analysis program on the CellInsight CX5 (Thermo Scientific). Dead or apoptotic cells were excluded from analysis based on positive SYTOX green staining. % of total cells positive for aSMA were counted in each well and normalized to the average of 11 wells treated with TGF-01 on the same plate using Dotmatics' Studies Software. The normalized averages (fold change over untreated) of 3 replicate wells for each compound concentration were used to create dose-responses curves and EC50 values were calculated using non-linear regression curve fit in the Dotmatics' Studies Software. For EC50 of >10 μM, the percent inhibition at 10 μM is provided.

In assay [4] the test system is IL-6. Kind of assay: IL-6 inhibition in LPS-stimulated THP-1 monocytes (HTRF). The format is cell-based, human. The conditions noted are these: Homo sapiens; THP-1 cells, 500 ng/mL LPS, 22 h, HTRF IL-6 readout; 10-point dose-response from 10 μM. The procedure: Human monocyte cell line (THP-1 cells; Catalog # TIB-202, ATCC, Manassas, Va.) were cultured in Roswell Park Memorial Institute (RPMI) 1640 Medium (Catalog #21870-100, Buffalo, N.Y.) with 1% L-glutamine, 1% HEPES, 1% Sodium Pyruvate, 2% Sodium Bicarbonate supplemented with 100 units/mL penicillin, 50 μg/mL streptomycin, 2-mercaptoethanol (0.05 mM) [basal medium] and 10% fetal bovine serum (Catalog #16140089, Life Technologies, Carlsbad, Calif.) at 37° C. and 5% CO2.
THP-1 cells were cultured in basal media with 1% FBS for 24 hours before the start of the assay. Each compound was dissolved in DMSO as a 10 mM stock and used to prepare compound source plates. Serial dilution (1:3, 10-point dose-response curves starting from 10 μM) and compound transfer was performed using the ECHO 550 (Labcyte, Sunnyvale, Calif.) into 384-well white low volume assay plates (Greiner Bio-One) with appropriate DMSO backfill for a final DMSO concentration of 0.1%. THP-1 cells were plated at 5000 cells/well in the 384-well plates and incubated at 37° C. for 2 h. 500 ng/mL of LPS was added after 2 hours and cells were incubated for another 22 hours at 37° C. Plates were spun in a centrifuge for 1 minute at […] and a mixture of anti-IL6 XL665, and anti-IL6 Cryptate diluted in reconstitution buffer (Cisbio Inc.) was added to each well. Following incubation for 3 hrs at room temperature, Homogeneous Time-Resolved Fluorescence (HTRF) was measured using the Envision (Perkin Elmer) at 665 nm and […]. The ratio of fluorescence at 665 nm to 620 nm was used as a readout for IL6 quantification. All samples were processed in duplicate. Readings were normalized to DMSO treated cells and normalized activities were utilized for EC50 calculations using the dose-response log (inhibitor) vs. response variable slope (four parameters) nonlinear regression feature available in GraphPad Prism 5.0 (or Dotmatics). For EC50 of >10 μM, the percent inhibition at 10 μM is provided.

Regarding `CC(C)Nc1cncc(-c2cnc3[nH]nc(-c4cc5c(N6CCN(C)CC6)cccc5[nH]4)c3c2)c1` [Compound 212, N-Isopropyl-5-(3-(4-(4-methylpiperazin-1-yl)-1H-indol-2-yl)-1H-pyrazolo[3,4-b]pyridin-5-yl)pyridin-3-amine], the EC50 in assay [1] was 1300 nM; in assay [2], 1940 nM; in assay [3], 1480 nM; in assay [4], 173 nM.
In the same order, the values of `CC(C)(C)C(=O)Nc1cncc(-c2cnc3[nH]nc(-c4cc5ccccc5[nH]4)c3c2)c1` [Compound 235, N-(5-(3-(1H-Indol-2-yl)-1H-pyrazolo[3,4-b]pyridin-5-yl)pyridin-3-yl) pivalamide] are 732 nM, 3460 nM, 282 nM and 350 nM.
Turning to `O=C(Nc1cncc(-c2cnc3[nH]nc(-c4cc5ccccc5[nH]4)c3c2)c1)C1CCC1` [Compound 247, N-(5-(3-(1H-Indol-2-yl)-1H-pyrazolo[3,4-b]pyridin-5-yl)pyridin-3-yl) cyclobutanecarboxamide], the EC50 in assay [1] is 530 nM; in assay [2], 1360 nM; in assay [3] it was 67 nM; in assay [4], 100 nM.
On to `CN(C)c1cncc(-c2cnc3[nH]nc(-c4cc5c(-c6cc(F)cc(CNS(C)(=O)=O)c6)cccc5[nH]4)c3c2)c1` [Compound 457, N-(3-(2-(5-(5-(Dimethylamino)pyridin-3-yl)-1H-pyrazolo[3,4-b]pyridin-3-yl)-1H-indol-4-yl)-5-fluorobenzyl)methanesulfonamide], for which the concentration giving a half-maximal response (EC50) in assay [1] was 283 nM; in assay [2], 1120 nM; in assay [3] it was 1720 nM; in assay [4], 1440 nM.
On the same counts, the results for `CC(C)(C)C(=O)Nc1cncc(-c2cnc3[nH]nc(-c4cc5c(-c6cc(F)cc(CNS(C)(=O)=O)c6)cccc5[nH]4)c3c2)c1` [Compound 458, N-(5-(3-(4-(3-Fluoro-5-(methylsulfonamidomethyl)phenyl)-1H-indol-2-yl)-1H-pyrazolo[3,4-b]pyridin-5-yl)pyridin-3-yl)pivalamide] are 485 nM, 1060 nM, 1200 nM and 146 nM.
In the same order, the values of `CS(=O)(=O)NCc1cc(F)cc(-c2cccc3[nH]c(-c4n[nH]c5ncc(-c6cncc(NC(=O)c7ccccc7)c6)cc45)cc23)c1` [Compound 461, N-(5-(3-(4-(3-Fluoro-5-(methylsulfonamidomethyl)phenyl)-1H-indol-2-yl)-1H-pyrazolo[3,4-b]pyridin-5-yl)pyridin-3-yl)benzamide] are 210 nM, 1690 nM, 1340 nM and 547 nM.
On the same counts, the results for `CS(=O)(=O)NCc1cc(F)cc(-c2cccc3[nH]c(-c4n[nH]c5ncc(-c6cncc(NC(=O)C7CC7)c6)cc45)cc23)c1` [Compound 470, N-(5-(3-(4-(3-Fluoro-5-(methylsulfonamidomethyl)phenyl)-1H-indol-2-yl)-1H-pyrazolo[3,4-b]pyridin-5-yl)pyridin-3-yl)cyclopropanecarboxamide] are 484 nM, 1060 nM, 1330 nM and 541 nM.
Turning to `CN(C)c1cncc(-c2cnc3[nH]nc(-c4cc5ncccc5[nH]4)c3c2)c1` [Compound 485, 5-(3-(1H-Pyrrolo[3,2-b]pyridin-2-yl)-1H-pyrazolo[3,4-b]pyridin-5-yl)-N,N-dimethylpyridin-3-amine], the EC50 in assay [1] stood at 3810 nM; in assay [2], 3440 nM; in assay [3], 2790 nM; in assay [4] it was 7400 nM.
For `Cn1cc(-c2cnc3[nH]nc(-c4cc5c(-c6cccs6)cccc5[nH]4)c3c2)cn1` [Compound 702, 5-(1-Methyl-1H-pyrazol-4-yl)-3-(4-(thiophen-2-yl)-1H-indol-2-yl)-1H-pyrazolo[3,4-b]pyridine], the EC50 in assay [1] worked out at 1320 nM; in assay [2], 1120 nM; in assay [3], 874 nM; in assay [4], 1370 nM.
